Patent US20250250284A1, “MACROCYCLE COMPOUNDS USEFUL AS KRAS INHIBITORS” (Hoffmann-La Roche Inc., priority 2022, published 2025)

How the values were obtained:
[1] = tested on: AGS cells; test: Cell viability assay (Cell Counting Kit-8), KRAS G12D; assay type: cell-based; details: Homo sapiens, 72 hrs incubation, CCK-8
Experimental: (§1) The purpose of this cellular assay was to determine the effects of test compounds on the proliferation of human cancer cell lines NCI-H358 (ATCC-CRL5807) cells, AGS (ATCC-CRL-1739) cells, SW620 (ATCC-CCL-227) over a 3-day treatment period by quantifying the amount of NADPH present at endpoint using Cell Counting Kit-8.
(§2) Cells were seeded at 5,000 cells/well (NCI-H358), 2,000 cells/well (AGS) 2,000 cells/well (SW620) in 96-well assay plates (Corning-3699) and incubated overnight. On the day of the assay, diluted compounds were then added in a final concentration of 0.5% DMSO. After 72 hrs incubation, a tenth of the volume of cell counting kit 8 (Dnjindo-CK04) was added into each well. Read the signal (OD450 minus OD650) using EnVision after 2 hrs incubation. IC50 was determined by fitting a 4-parameter sigmoidal concentration response model.

[2] = tested on: phosphorylation of ERK, KRAS G12V in SW620; test: pERK inhibition assay, KRAS G12V; assay type: cell-based; details: Homo sapiens, SW-620; SW620 cells, 4 hours of incubation
Experimental: (§3) This assay is to measure the ability of test compounds in inhibiting the phosphorylation of ERK, the downstream signaling of KRAS G12C in NCI-H358 cells, KRAS G12D in AGS cells, and KRAS G12V in SW620. NCI-H358 (ATCC-CRL5807) cells, AGS (ATCC-CRL-1739) cells, SW620 (ATCC-CCL-227) cells were all grown and maintained using RPMI-1640 medium (Thermo Fisher Scientific) with 10% fetal bovine serum and 1% penicillin/streptomycin. On the day prior to compound addition, cells were plated in tissue culture-treated 96 well plates (Corning-3699) at a density of 30,000 cell/well, 20,000 cell/well, 30,000 cell/well for NCI-H358, AGS and SW620 respectively, and allowed for attachment overnight. Diluted compounds were then added in a final concentration of 0.5% DMSO. After 4 hours of incubation, the medium was removed, 100 μL of 4% formaldehyde was added, and the assay plates were incubated at room temperature for 20 minutes. The plates were then washed once with phosphate buffered saline (PBS), and permeabilized with 100 μL of chilled methanol for 10 minutes. Non-specific antibody binding to the plates was blocked using 50 μL 1×BSA blocking buffer (Thermo-37520, 10-fold dilution by Phosphate-Buffered Saline Tween (PBST) for at least 1 hour at room temperature.
(§4) The amount of phosphor-ERK was determined using an antibody specific for phosphorylated form of ERK. Primary antibody (pERK, CST-4370, Cell Signaling Technology) was diluted 1:300 in blocking buffer, with 50 μL aliquoted to each well, and incubated overnight at 4° C. Cells was washed five times for 5 minutes with PBST. Secondary antibody (HRP-linked anti-rabbit IgG, CST-7074, Cell Signaling Technology) was diluted 1:1000 in blocking buffer, and 50 μL was added to each well and incubated 1-2 hrs at room temperature. Cells was washed 5 times for 5 minutes with PBST, 100 μL TMB ELISA substrate (abcam-ab171523) were added and gently shake for 20 minutes. 50 μL stop solution (abcam-ab171529) were added, and then read the signal (OD450) by EnVision.
(§5) IC50 was determined by fitting a 4-parameter sigmoidal concentration response model.

[3] = target: KRAS G12D binding to BRAF (Homo sapiens (Human), UniProt P01116+P62937, G12D); test: KRAS-BRAF with CYPA (500 nM) interaction assay (TR-FRET), G12D; details: GMPPNP loaded 6His-KRAS, GST-BRAF RBD, 3 hours
Experimental: (§6) KRAS-BRAF with CYPA (500 nM) Interaction Assay
(§7) In this example, TR-FRET was also used to measure the compound or compound-CYPA dependent disruption of the KRAS G12C-BRAF complex. This protocol was also used to measure disruption of KRAS G12D or KRAS G12V binding to BRAF by a compound of the invention, respectively. In assay buffer containing 25 mM HEPES PH=7.4 (4-(2-hydroxyethyl)-1-piperazineethanesulfonic acid, Thermo, 15630080), 0.002% Tween20, 0.1% BSA, 100 mM NaCl, 5 mM MgCl2, 10 μM GMPPNP (Guanosine 5′-[β,γ-imido]triphosphate trisodium salt hydrate, Sigma, G0635), tagless CYPA, GMPPNP loaded 6His-KRAS proteins, and GST-BRAF^RBD were mixed in a well of a 384-well assay plate at final concentrations of 50 nM, 6.25 nM and 1 nM, respectively. Compound was present in plate wells as a 16-point 3-fold dilution series starting at a final concentration of 10 μM and incubated for 3 hours. A mixture of MAb Anti-6His-XL665 (Cisbio, 61HISXLB) and Mab anti-GST-TB cryptate (Cisbio, 61GSTTLB) was then added at a final concentration of 6.67 nM and 0.21 nM, respectively, and the plate was incubated for an additional 1.5 hours. TR-FRET signal was read on a PHERstar FSX microplate reader (Ex320 nm, Em 665/615 nm). Compounds that facilitate disruption of the KRAS-BRAF complex were identified as those eliciting a decrease in the TR-FRET ratio relative to DMSO control wells.

[4] = tested on: NCI-H358 cells; test: Cell viability assay (Cell Counting Kit-8), KRAS G12C; assay type: cell-based; details: Homo sapiens, 72 hrs incubation, CCK-8
Experimental: as §1, §2

[5] = tested on: phosphorylation of ERK, KRAS G12D in AGS cells; test: pERK inhibition assay, KRAS G12D; assay type: cell-based; details: Homo sapiens, 4 hours of incubation
Experimental: as §3, §4, §5

[6] = tested on: phosphorylation of ERK, KRAS G12C in NCI-H358 cells; test: pERK inhibition assay, KRAS G12C; assay type: cell-based; details: Homo sapiens, 4 hours of incubation
Experimental: as §3, §4, §5

[7] = tested on: SW620 cells; test: Cell viability assay (Cell Counting Kit-8), KRAS G12V; assay type: cell-based; details: Homo sapiens, SW-620, 72 hrs incubation, CCK-8
Experimental: as §1, §2

[8] = target: KRAS G12V binding to BRAF (Homo sapiens (Human), UniProt P01116+P62937, G12V); test: KRAS-BRAF with CYPA (500 nM) interaction assay (TR-FRET), G12V; details: GMPPNP loaded 6His-KRAS, GST-BRAF RBD, 3 hours
Experimental: as §6, §7

[9] = target: KRAS G12C-BRAF complex (Homo sapiens (Human), UniProt P01116+P62937, G12C); test: KRAS-BRAF with CYPA (500 nM) interaction assay (TR-FRET), G12C; assay type: binding; details: GMPPNP loaded 6His-KRAS, GST-BRAF RBD, 3 hours
Experimental: as §6, §7

Chain of KRAS G12D binding to BRAF (P01116-2 other isoform, or with tags, fused parts or gaps G12D): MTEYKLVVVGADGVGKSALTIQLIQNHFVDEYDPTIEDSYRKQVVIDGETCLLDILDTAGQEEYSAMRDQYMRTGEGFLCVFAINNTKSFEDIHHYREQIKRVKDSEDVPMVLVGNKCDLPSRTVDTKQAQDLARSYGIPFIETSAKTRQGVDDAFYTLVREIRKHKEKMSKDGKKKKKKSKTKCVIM
Chain of KRAS G12D binding to BRAF (P62937 whole entry): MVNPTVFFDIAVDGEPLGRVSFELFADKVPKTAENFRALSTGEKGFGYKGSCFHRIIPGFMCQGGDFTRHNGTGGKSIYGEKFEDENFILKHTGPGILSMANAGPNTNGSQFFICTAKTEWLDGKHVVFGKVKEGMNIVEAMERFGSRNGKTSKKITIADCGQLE
Chain of KRAS G12V binding to BRAF (P01116-2 other isoform, or with tags, fused parts or gaps G12V): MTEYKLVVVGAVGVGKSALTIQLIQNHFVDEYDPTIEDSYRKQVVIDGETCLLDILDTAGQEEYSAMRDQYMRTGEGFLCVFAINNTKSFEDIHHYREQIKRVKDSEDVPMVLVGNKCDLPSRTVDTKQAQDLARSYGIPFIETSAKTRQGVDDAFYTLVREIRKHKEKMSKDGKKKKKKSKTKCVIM
Chain of KRAS G12V binding to BRAF (P62937 whole entry): as the sequence (P62937 whole entry) above
Chain of KRAS G12C-BRAF complex (P01116-2 other isoform, or with tags, fused parts or gaps G12C): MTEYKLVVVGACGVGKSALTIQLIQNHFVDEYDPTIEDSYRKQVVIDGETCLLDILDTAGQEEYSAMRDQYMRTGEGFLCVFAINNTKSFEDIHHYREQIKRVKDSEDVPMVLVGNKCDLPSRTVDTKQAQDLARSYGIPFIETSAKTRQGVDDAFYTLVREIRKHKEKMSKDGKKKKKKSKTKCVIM
Chain of KRAS G12C-BRAF complex (P62937 whole entry): as the sequence (P62937 whole entry) above

Row | Compound | IC50 [1] | IC50 [2] | IC50 [4] | IC50 [5] | IC50 [6] | IC50 [7] | IC50 [3] | IC50 [8] | IC50 [9]
1 | CO[C@@H](C)c1ncc(N2CCN(CC(F)(F)F)CC2)cc1-c1c2c3cc(c(F)cc3n1CC(F)(F)F)-c1csc(n1)C[C@H](NC(=O)[C@H]1C[C@@H]1C)C(=O)N1CCC[C@H](N1)C(=O)OCC(C)(C)C2 (atropisomer, axis not shown; (M)) [Example 9, (1S,2S)—N-[(7S,13S)-24-fluoro-(20M)-20-[2-[(1S)-1-methoxyethyl]-5-[4-(2,2,2-trifluoroethyl)piperazin-1-yl]-3-pyridyl]-17,17-dimethyl-8,14-dioxo-21-(2,2,2-trifluoroethyl)-15-oxa-4-thia-9,21,27,28-tetrazapentacyclo[17.5.2.1^2,5.1^9,13.0^22,26]octacosa-1(25),2,5(28),19,22(26),23-hexaen-7-yl]-2-methyl-cyclopropanecarboxamide] | 0.704 µM | 0.022 µM | 0.224 µM | 0.161 µM | 0.047 µM | 0.04 µM | 0.66 µM | 0.171 µM | 0.09 µM
2 | CCn1c(-c2cc(N3CCN(C)CC3)cnc2[C@H](C)OC)c2c3cc(c(F)cc31)-c1csc(n1)C[C@H](NC(=O)[C@H]1C[C@@H]1C#N)C(=O)N1CCC[C@H](N1)C(=O)OCC(C)(C)C2 [Example 5, (1S,2S)-2-cyano-N-[(7S,13S)-21-ethyl-24-fluoro-(20M)-20-[2-[(1S)-1-methoxyethyl]-5-(4-methylpiperazin-1-yl)-3-pyridyl]-17,17-dimethyl-8,14-dioxo-15-oxa-4-thia-9,21,27,28-tetrazapentacyclo[17.5.2.1^2,5.1^9,13.0^22,26]octacosa-1(25),2,5(28),19,22(26),23-hexaen-7-yl]cyclopropanecarboxamide] | 0.089 µM | 0.013 µM | 0.023 µM | 0.056 µM | 0.057 µM | 0.012 µM | – | – | –
3 | CCn1c(-c2cc(N3CCN(C)CC3)cnc2[C@H](C)OC)c2c3cc(c(F)cc31)-c1csc(n1)C[C@H](NC(=O)[C@H]1C[C@@H]1C(F)F)C(=O)N1CCC[C@H](N1)C(=O)OCC(C)(C)C2 (atropisomer, axis not shown; (M)) [Example 3, (1S,2S)-2-(difluoromethyl)-N-[(7S,13S)-21-ethyl-24-fluoro-(20M)-20-[2-[(1S)-1-methoxyethyl]-5-(4-methylpiperazin-1-yl)-3-pyridyl]-17,17-dimethyl-8,14-dioxo-15-oxa-4-thia-9,21,27,28-tetrazapentacyclo[17.5.2.1^2,5.1^9,13.0^22,26]octacosa-1(25),2,5(28),19,22(26),23-hexaen-7-yl]cyclopropanecarboxamide] | 0.197 µM | 0.005 µM | 0.0116 µM | 0.029 µM | 0.011 µM | 0.008 µM | 1.72 µM | 0.243 µM | 0.196 µM
4 | CCn1c(-c2cc(N3CCN(C)CC3)cnc2[C@H](C)OC)c2c3cc(c(F)cc31)-c1csc(n1)C[C@H](NC(=O)[C@@H]1C[C@H]1C#N)C(=O)N1CCC[C@H](N1)C(=O)OCC(C)(C)C2 [Example 6, (1R,2R)-2-cyano-N-[(7S,13S)-21-ethyl-24-fluoro-(20M)-20-[2-[(1S)-1-methoxyethyl]-5-(4-methylpiperazin-1-yl)-3-pyridyl]-17,17-dimethyl-8,14-dioxo-15-oxa-4-thia-9,21,27,28-tetrazapentacyclo[17.5.2.1^2,5.1^9,13.0^22,26]octacosa-1(25),2,5(28),19,22(26),23-hexaen-7-yl]cyclopropanecarboxamide] | 0.316 µM | 0.025 µM | 0.079 µM | 0.116 µM | 0.079 µM | 0.035 µM | – | – | –

More lines, main results first:

Row | IC50 [1] | IC50 [2] | IC50 [4] | IC50 [5] | IC50 [6] | IC50 [7] | Compound | IC50 [3] | IC50 [8] | IC50 [9]
5 | 0.244 µM | 0.009 µM | 0.011 µM | 0.053 µM | 0.033 µM | 0.016 µM | CO[C@@H](C)c1ncc(N2CCOCC2)cc1-c1c2c3cc(c(F)cc3n1CC(F)(F)F)-c1csc(n1)C[C@H](NC(=O)[C@H]1C[C@@H]1C)C(=O)N1CCC[C@H](N1)C(=O)OCC(C)(C)C2 (atropisomer, axis not shown; (M)) [Example 12, (1S,2S)—N-[(7S,13S)-24-fluoro-(20M)-20-[2-[(1S)-1-methoxyethyl]-5-morpholino-3-pyridyl]-17,17-dimethyl-8,14-dioxo-21-(2,2,2-trifluoroethyl)-15-oxa-4-thia-9,21,27,28-tetrazapentacyclo[17.5.2.1^2,5.1^9,13.0^22,26]octacosa-1(25),2,5(28),19,22(26),23-hexaen-7-yl]-2-methyl-cyclopropanecarboxamide] | – | – | –
6 | 0.111 µM | 0.007 µM | 0.005 µM | 0.028 µM | 0.021 µM | 0.007 µM | CCn1c(-c2cc(N3CCOCC3)cnc2[C@H](C)OC)c2c3cc(c(F)cc31)-c1csc(n1)C[C@H](NC(=O)[C@H]1C[C@@H]1C(F)F)C(=O)N1CCC[C@H](N1)C(=O)OCC(C)(C)C2 (atropisomer, axis not shown; (M)) [Example 11, (1S,2S)-2-(difluoromethyl)-N-[(7S,13S)-21-ethyl-24-fluoro-(20M)-20-[2-[(1S)-1-methoxyethyl]-5-morpholino-3-pyridyl]-17,17-dimethyl-8,14-dioxo-15-oxa-4-thia-9,21,27,28-tetrazapentacyclo[17.5.2.1^2,5.1^9,13.0^22,26]octacosa-1(25),2,5(28),19,22(26),23-hexaen-7-yl]cyclopropanecarboxamide] | – | – | –
